Measurements taken from EP4744657A1, “THERAPEUTIC AGENT FOR HUMAN GRAFT VERSUS HOST DISEASE AND COMBINATION THEREOF” (National University Corporation Okayama University, priority 2023, dated 2025).
Values joined by “and” are separate entries in the source; they are usually repeats but may differ in a detail not shown here. Identical values can stand only once.

Columns and labels:
[1] = Plasma concentration of active ingredient in patients, measured by HPLC (Example 3); format: in vivo, human
Protocol: To a total of 11 patients, a single dose of 2.0 mg, 4.0 mg, or 6.0 mg of tamibarotene was administered.
Moreover, to a total of 6 patients, repeated doses of 8.0 mg or 10.0 mg of tamibarotene were administered.
For the 2.0 mg dose, one tablet (2 mg of tamibarotene) was administered after breakfast using a tablet of 2 mg tamibarotene; for the 4.0 mg dose, one tablet (2 mg of tamibarotene) was administered after breakfast and one tablet (2 mg of tamibarotene) was administered after dinner; and for the 6.0 mg dose, two tablets (4 mg of tamibarotene) were administered after breakfast and one tablet (2 mg of tamibarotene) was administered after dinner.
For the 8.0 mg dose, two tablets (4 mg of tamibarotene) after breakfast and two tablets (4 mg of tamibarotene) after dinner were administered repeatedly for 35 to 46 days, using a tablet of 2 mg tamibarotene. For the 10.0 mg dose, three tablets (6 mg of tamibarotene) after breakfast and two tablets (4 mg of tamibarotene) after dinner were administered repeatedly for 34 to 59 days, using a tablet of 2 mg tamibarotene. […]

[2] = system: chronic graft versus host disease (chronic GVHD); test: Clinical study of efficacy and safety of tamibarotene for chronic GVHD (Examples 1 and 2); format: in vivo, human; details: for Eyeball: subjects with improvement in Schirmer's test: out of the 18 subjects; for subjects for whom the overall judgment was PR: oral, start 4 mg per day, with PSL/steroid
Protocol: Tamibarotene was administered to a patient with chronic graft versus host disease (chronic GVHD) after allogeneic hematopoietic stem cell transplantation, and efficacy thereof was studied. Main selection criteria for subjects are as follows: • (A) An age is 18 years or older and younger than 85 years • (B) A Karnofsky performance status (KPS) is 60 or more • (C) A steroid treatment-refractory or steroid treatment-dependent patient who has started treatment with 0.5 mg/kg or more of PSL (prednisolone) (or received corresponding steroid treatment) as a first-line treatment, and who falls under any of the following (1) through (4): • (1) A patient who needs additional treatment because of exacerbation even after 1 mg/kg or more of PSL has been administered for 2 weeks; • (2) A patient who has not been ameliorated after 4 weeks of treatment, including administration of 0.5 mg/kg or more of PSL for 2 weeks, and needs additional treatment. • (3) A patient whose GVHD symptom has relapsed or worsened within a period in which the dose of the steroid was reduced • (4) A steroid treatment-dependent patient for whom a dose reduction from 10 mg/day (or corresponding steroid treatment) is difficult Tamibarotene was administered to 18 subjects. As the administration method, 2 mg tablets of tamibarotene were administered orally for 24 weeks. The administration was started with 2 doses (a 2 mg tablet, twice) after breakfast and dinner, i.e., 4 mg (equivalent to 3 mg/m^2) per day. PSL or steroid administration was also continued daily. 2 mg tablets of tamibarotene were administered orally for 24 weeks. Administration was started at 4 mg (equivalent to 3 mg/m^2) per day, i.e., twice daily after breakfast and dinner (one 2 mg tablet in each of the morning and evening). If an adverse event was mild (grade 0 to 1), the dose could be increased to 8 mg per day (two 2 mg tablets in each of the morning and evening) after 4 weeks of continuation (in a case of 6 mg per day, two 2 mg tablets were to be taken after breakfast and one 2 mg tablet after dinner). In a case of grade 2 for an unexpected adverse event (for which a causal relationship could not be ruled out), or grade 3 for an expected adverse event (for which a causal relationship could not be ruled out), the dose was reduced to 2 mg per day (one tablet once after breakfast), and administration was continued. Alternatively, after a 2-week drug holiday, administration was restarted at 2 mg per day and continued, after confirming that the adverse event had improved to a grade one level lower than that before the drug holiday. However, in regard to an abnormal liver function of grade 3, in a case of a patient who had grade 3 liver dysfunction due to chronic GVHD from before enrollment, administration could be continued without dose reduction or drug holiday, even if the abnormal liver function remained at grade 3. In a case where drug holidays and restarts were repeated with administration at 2 mg per day due to an adverse event, administration could be continued by reducing the dose to 2 mg on alternate days. The survival rate without treatment failure (death, relapse, implementation of additional treatment) at the end of tamibarotene administration (week 24), i.e., failure-free survival (FFS), was evaluated. In a case where additional treatment was implemented for chronic GVHD, such a case was considered treatment failure at that point in time. In regard to the additional treatment herein, a change in the steroid dose was not considered, but in a case where the dose was increased to an amount exceeding 1 mg/kg/day, it was considered that additional treatment had been implemented. [Table 1] For the skin, eyeball, and gastrointestinal tract, the NIH organ-specific scores described in Biol. Blood Marrow Transplant, 2005 11(12), 945-56 were used. For the skin, a therapeutic effect was further evaluated using a total skin score. In addition, the 15-point Schubert scale in Table 2 was used for the oral cavity. […]

[3] = week 12 of administration, 18 subjects
[4] = week 24, out of the 16 subjects
[5] = week 24 of administration, 5/18
[6] = week 24 of administration, 18 subjects

SMILES: CC1(C)CCC(C)(C)c2cc(NC(=O)c3ccc(C(=O)O)cc3)ccc21 [tamibarotene, 4-[(5,6,7,8-tetrahydro-5,5,8,8-tetramethyl-2-naphthalenyl)carbamoyl]benzoic acid]
- Plasma concentration ([1]; after 8 hours from a single dose of 2.0 mg, lowest concentration list, 480 min): 3.26 ng/mL
- Plasma concentration ([1]; after 10 hours from a single dose of 4.0 mg, lowest concentration list, 600 min): 8.03 ng/mL and 7.01 ng/mL
- Plasma concentration ([1]; after 24 hours from single dose of 6.0 mg, individual values, lowest concentration list, 1440 min): 1.08 ng/mL and 1.14 ng/mL and 2.50 ng/mL
- Plasma concentration ([1]; after hours (figure not given) from repeated doses (46 days) of 8.0 mg, highest concentration list): 100.09 ng/mL
- concentration at 4 h ([1]; human, plasma, po, 2 mg, after 4 hours from a single dose of 2.0 mg, lowest concentration list): 8.98 ng/mL
- concentration at 8 h ([1]; human, plasma, po, 2 mg, after 8 hours from a single dose of 2.0 mg, lowest concentration list): 5.04 ng/mL
- concentration at 10 h ([1]; human, plasma, po, 4 mg, after 10 hours from a single dose of 4.0 mg, lowest concentration list): 9.56 ng/mL
- concentration at 4 h ([1]; human, plasma, po, 6 mg, after 4 hours from a single dose of 6.0 mg, highest concentration list): 80.2 ng/mL
- concentration at 4 h ([1]; human, plasma, po, 6 mg, after 4 hours from repeated doses (47 days) of 6.0 mg, highest concentration list): 92.5 ng/mL
- concentration at 6 h ([1]; human, plasma, po, 6 mg, after 6 hours from a single dose of 6.0 mg, lowest concentration list): 7.42 ng/mL
- concentration at 10 h ([1]; human, plasma, po, 6 mg, after 10 hours from a single dose of 6.0 mg, lowest concentration list): 7.72 ng/mL
- concentration at 4 h ([1]; human, plasma, po, 8 mg, after 4 hours from repeated doses (35 days) of 8.0 mg, highest concentration list): 84.6 ng/mL
- concentration at 4 h ([1]; human, plasma, po, 8 mg, after 4 hours from repeated doses (46 days) of 8.0 mg, highest concentration list): 85.2 ng/mL
- concentration at 24 h ([1]; human, plasma, po, 8 mg, after 24 hours from repeated doses (46 days) of 8.0 mg, lowest concentration list): 2.92 ng/mL
- concentration at 2 h ([1]; human, plasma, po, 10 mg, after 2 hours from repeated doses (34 days) of 10.0 mg, highest concentration list): 88 ng/mL
- concentration at 2 h ([1]; human, plasma, po, 10 mg, after 2 hours from repeated doses (58 days) of 10.0 mg, highest concentration list): 199 ng/mL
- concentration at 2 h ([1]; human, plasma, po, 10 mg, after 2 hours from repeated doses (59 days) of 10.0 mg, highest concentration list): 119 ng/mL
- concentration at 4 h ([1]; human, plasma, po, 10 mg, after 4 hours from repeated doses (34 days) of 10.0 mg, highest concentration list): 85.6 ng/mL
- concentration at 4 h ([1]; human, plasma, po, 10 mg, after 4 hours from repeated doses (36 days) of 10.0 mg, highest concentration list): 161 ng/mL
- concentration at 4 h ([1]; human, plasma, po, 10 mg, after 4 hours from repeated doses (58 days) of 10.0 mg, highest concentration list): 88.7 ng/mL
- concentration at 4 h ([1]; human, plasma, po, 10 mg, after 4 hours from repeated doses (59 days) of 10.0 mg, highest concentration list): 82.1 ng/mL
- concentration at 8 h ([1]; human, plasma, po, 10 mg, after 8 hours from repeated doses (36 days) of 10.0 mg, highest concentration list): 112 ng/mL
- follow-up of single subjects whose overall judgment was PR ([2]; 2 years after the end of treatment, one subject per line): able to discontinue the administration of PSL and reduce the dose of FK506 at 2 years after the end of treatment without exacerbation of chronic GVHD
- knee joint flexion ([2]; Case 1, start vs end of administration, 200 days, Fig. 1): notable improvement in knee joint flexion
- knee joint extension ([2]; Case 1, start vs end of administration, 200 days, tamibarotene/prednisolone/tacrolimus 4 mg/15 mg/4 mg at start, Fig. 1): notable improvement in knee joint extension
- cutis symptom on knee ([2]; Case 2, start vs end of administration, 137 days, Fig. 2): notable amelioration of pigmentation and skin sclerosis in the knee
- cutis symptom on lower part of back ([2]; Case 2, start vs end of administration, 137 days, tamibarotene/predonine/tacrolimus 4 mg/11 mg/0.2 mg at start, Fig. 2): amelioration of pigmentation and skin sclerosis in the lower part of the lower back
- oral cavity symptom ([2]; Case 3, start vs end of administration, 83 days, tamibarotene/prednisolone/tacrolimus 4 mg/10 mg/0.6 mg, Fig. 3): healing of ulcer and notable amelioration of erythema were seen in the oral cavity
- response rate for each organ (Fig. 4), in words ([2]; all cases in Example 1): the effect was seen in chronic GVHD of the eyeball and liver in addition to the skin and the oral cavity, or chronic GVHD maintained without exacerbation
- overall response rate ([2]; entire administered population, final analysis, NIH Consensus Development Project Criteria (2005), 6/18, 95% confidence interval 13.3% to 59.0%): 33.3%
- overall response rate based on the NIH Consensus Development Project Criteria (2014) ([2]; entire administered population, sensitivity analysis, 7/18 cases, 95% confidence interval 17.3% to 64.3%): 38.9%
- NIH response rate for the joints and fascia ([2]; human, in vivo): 11%
- response rate for the lung function score ([2]; human, in vivo): unchanged
- NIH response rate for the liver ([2]; influence of other diseases difficult to consider): 23%
- Eyeball: subjects with improvement in Schirmer's test ([2]; left eye): 7 subjects
- NIH response rate for the gastrointestinal tract ([2]; n=5): 20%
- NIH response rate for the genitals ([2]; n=6): 17%
- amelioration in the symptom after administration ([2]; patients in Examples, no amelioration before with various drugs): amelioration in the symptom was seen in all the patients
- Eyeball: subjects with improvement in Schirmer's test ([2]; right eye): 5 subjects
- Oral cavity: symptoms ([2]; several subjects): healing of ulcer and notable amelioration of erythema were seen in several subjects
- Skin: symptoms ([2]; several subjects): notable amelioration of edema, skin sclerosis, pigmentation, or erythema in several subjects
- range of joint motion ([2]; subjects in whom a therapeutic effect was confirmed): notable improvement in the range of joint motion
- subjects for whom the overall judgment was SD [2, 3]: 7 subjects
- subjects for whom the overall judgment was PR [2, 3]: 5 subjects
- subjects in whom the dose of PSL could be reduced by 50% or more ([2]; week 24, compared with start of tamibarotene administration, 18 subjects): 3 subjects
- subjects in whom the dose of PSL could be reduced ([2]; week 24, compared with start of treatment, 18 subjects): 7 subjects
- Eyeball: NIH response rate ([2]; week 24, 14 subjects): 14%
- Eyeball: subjects evaluated as CR ([2]; week 24, 14 subjects): No subject
- Eyeball: subjects evaluated as PR ([2]; week 24, 14 subjects): two
- Oral cavity: NIH response rate ([2]; week 24, 16 subjects): 25%
- Oral cavity: subjects evaluated as CR ([2]; week 24, 16 subjects): Two
- Oral cavity: subjects evaluated as PR ([2]; week 24, 16 subjects): two
- Skin: NIH response rate ([2]; week 24, 16 subjects): 25%
- Skin: subjects evaluated as CR ([2]; week 24, 16 subjects): One
- Skin: subjects evaluated as PR ([2]; week 24, 16 subjects): three
- Oral cavity: subjects with improved score on the 15-point Schubert scale [2, 4]: 10 subjects
- Skin: subjects with improved total skin score [2, 4]: 8 subjects
- failure-free survival (FFS) [2, 5]: 28%
- response rate [2, 5]: 28%
- subjects for whom the overall judgment was SD [2, 6]: 7 subjects
- subjects for whom the overall judgment was PR [2, 6]: 5 subjects
